In US10253039B2, “Inhibitors of bacterial DNA gyrase with efficacy against gram-negative bacteria” (priority 2014, dated 2019):
In brackets after ≈: the same amount, converted by molar mass. Where two headings read alike, the source gives them in different places.

Tests used:
Assay type in all cases: cell-based
E. coli BW25113 = assay: MIC, microdilution in 96-well plates; conditions: Escherichia coli, read-out: MIC
Method in brief: (§1)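 CLSI microdilution, LB, 1:10000 inoculum of actively growing culture; 2-fold dilution series in triplicate, DMSO control lane; 37° C., shaking, 16-18 h; endpoint = no visible growth.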

Edwardsiella tarda = assay: MIC, microdilution in 96-well plates
Method in brief: as §1

E. coli JW5503 (deltolC) = assay: MIC, 20-strain panel; conditions: Escherichia coli
Method in brief: as §1

E. coli MG1655 = assay: MIC, 20-strain panel; conditions: Escherichia coli, read-out: MIC
Method in brief: as §1

[1] = system: Klebsiella pneumoniae subsp. pneumoniae; assay: MIC, 20-strain panel
Method in brief: as §1

[2] = system: Salmonella enterica subsp. enterica typhimurium; assay: MIC, 20-strain panel
Method in brief: as §1

Shigella flexneri = assay: MIC, 20-strain panel
Method in brief: as §1

[3] = system: Staphylococcus aureus subsp. aureus; assay: MIC, 20-strain panel; conditions: read-out: MIC
Method in brief: as §1

[4] = system: Staphylococcus epidermidis; assay: MIC, 20-strain panel
Method in brief: as §1

[5] = system: Staphylococcus saprophyticus subsp. saprophyticus; assay: MIC, 20-strain panel
Method in brief: as §1

Streptococcus agalactiae = assay: MIC, 20-strain panel
Method in brief: as §1

Streptococcus pyogenes = assay: MIC, 20-strain panel
Method in brief: as §1

[6] = E: Klebsiella pneumoniae subsp. pneumoniae
[7] = F: Salmonella enterica subsp. enterica Typhimurium
[8] = H: Staphylococcus aureus subsp. aureus
[9] = Klebsiella pneumoniae subsp. pneumoniae
[10] = Salmonella enterica subsp. enterica Typhimurium
[11] = Staphylococcus aureus subsp. aureus

SMILES | MIC (E. coli BW25113; BW25113, B: E. coli BW25113) [µg/mL] | MIC (Edwardsiella tarda; D: Edwardsiella tarda) [µg/mL] | MIC (E. coli JW5503 (deltolC); C: E. coli JW5503 (deltolC)) [µg/mL] | MIC (E. coli MG1655; MG1655, A: E. coli MG1655) [µg/mL] | MIC [1, 6] [µg/mL] | MIC [2, 7] [µg/mL] | MIC (Shigella flexneri; G: Shigella flexneri) [µg/mL] | MIC [3, 8] [µg/mL] | MIC [4] [µg/mL] | MIC [5] [µg/mL] | MIC (Streptococcus agalactiae) [µg/mL] | MIC (Streptococcus pyogenes) [µg/mL] | MIC (E. coli BW25113; BW25113, E. coli BW25113) [µg/mL] | MIC (Edwardsiella tarda) [µg/mL] | MIC (E. coli JW5503 (deltolC); E. coli JW5503 (deltolC)) [µg/mL] | MIC (E. coli MG1655; MG1655, E. coli MG1655) [µg/mL] | MIC [1, 9] [µg/mL] | MIC [2, 10] [µg/mL] | MIC (Shigella flexneri) [µg/mL] | MIC [3, 11] [µg/mL]
N#Cc1cc(S(=O)(=O)N[C@@H]2CCN(Cc3ccc(-c4ccccc4)cc3)C2)ccc1F [Compound 19] | > 8 | > 8 | 0.25 (≈ 0.574 µM) | > 8 | > 8 | 4 (≈ 9.18 µM) | > 8 | > 8 | > 8 | > 8 | > 8 | > 8 | – | – | – | – | – | – | – | –
N#Cc1cccc(S(=O)(=O)N[C@@H]2CCN(Cc3ccc(-c4cncnc4)cc3)C2)c1 [Compound 22] | > 8 | > 8 | 8 (≈ 19.1 µM) | > 8 | > 8 | > 8 | > 8 | > 8 | > 8 | > 8 | > 8 | > 8 | – | – | – | – | – | – | – | –
N#Cc1cc(S(=O)(=O)N[C@@H]2CCN(Cc3ccc(-c4ccccc4)cc3)C2)ccc1Cl [Compound 120] | > 8 | > 8 | ~8 (≈ 17.7 µM) | > 8 | > 8 | > 8 | > 8 | > 8 | > 8 | > 8 | > 8 | > 8 | – | – | – | – | – | – | – | –
O=S(=O)(N[C@@H]1CCN(Cc2ccc(-c3nccs3)cc2)C1)c1cccc(C(F)(F)F)c1 [Compound 57] | > 8 | > 8 | 8 (≈ 17.1 µM) | > 8 | > 8 | > 8 | > 8 | > 8 | > 8 | > 8 | > 8 | > 8 | – | – | – | – | – | – | – | –
COc1ccc(-c2ccc(CN3CC[C@@H](NS(=O)(=O)c4cccc(C(F)(F)F)c4)C3)cc2)cc1 [Compound 61] | > 8 | > 8 | 4 (≈ 8.15 µM) | > 8 | > 8 | > 8 | > 8 | > 8 | ~8 (≈ 16.3 µM) | > 8 | > 8 | ~8 (≈ 16.3 µM) | – | – | – | – | – | – | – | –
N#Cc1cccc(S(=O)(=O)N[C@@H]2CCN(Cc3ccc(-n4cccn4)cc3)C2)c1 [Compound 145] | – | – | – | – | – | – | – | – | > 8 | > 8 | > 8 | > 8 | > 8 | > 8 | 8 (≈ 19.6 µM) | > 8 | > 8 | > 8 | > 8 | > 8
Cc1ccc(S(=O)(=O)N[C@@H]2CCN(Cc3ccc(OC4CC4)cc3)C2)cn1 [Compound 175] | – | – | – | – | – | – | – | – | > 8 | > 8 | > 8 | > 8 | > 8 | > 8 | > 8 | > 8 | > 8 | > 8 | > 8 | > 8
O=S(=O)(N[C@@H]1CCN(Cc2ccc(-c3ccccc3)cc2)C1)c1cccnc1 [Compound 146] | – | – | – | – | – | – | – | – | > 8 | > 8 | > 8 | > 8 | > 8 | > 8 | 8 (≈ 20.3 µM) | > 8 | > 8 | > 8 | > 8 | > 8
N#Cc1cccc(S(=O)(=O)N[C@@H]2CCN(Cc3ccc(OC4CCCC4)cc3)C2)c1 [Compound 40] | > 8 | > 8 | 0.5 (≈ 1.17 µM) | > 8 | > 8 | 4 (≈ 9.4 µM) | > 8 | > 8 | > 8 | > 8 | > 8 | > 8 | – | – | – | – | – | – | – | –
O=S(=O)(N[C@@H]1CCN(Cc2ccc(-c3ccccn3)cc2)C1)c1cccc(OC(F)(F)F)c1 [Compound 48] | > 8 | > 8 | 1 (≈ 2.09 µM) | > 8 | > 8 | > 8 | > 8 | > 8 | > 8 | > 8 | > 8 | > 8 | – | – | – | – | – | – | – | –
Cc1ccncc1S(=O)(=O)N[C@@H]1CCN(Cc2ccc(OC3CC3)cc2)C1 [Compound 153] | – | – | – | – | – | – | – | – | > 8 | > 8 | > 8 | > 8 | > 8 | > 8 | 8 (≈ 20.6 µM) | > 8 | > 8 | > 8 | > 8 | > 8
O=S(=O)(N[C@@H]1CCN(Cc2ccc(SC(F)(F)F)cc2)C1)c1cccc(C(F)(F)F)c1 [Compound 52] | > 8 | > 8 | 4 (≈ 8.26 µM) | > 8 | > 8 | > 8 | > 8 | > 8 | > 8 | > 8 | > 8 | > 8 | – | – | – | – | – | – | – | –
N#Cc1cccc(S(=O)(=O)N[C@@H]2CCN(Cc3ccc(OCC(F)F)cc3)C2)c1 [Compound 8] | > 8 | > 8 | 2 (≈ 4.75 µM) | > 8 | > 8 | 8 (≈ 19 µM) | > 8 | > 8 | > 8 | > 8 | > 8 | > 8 | – | – | – | – | – | – | – | –
O=S(=O)(N[C@@H]1CCN(Cc2ccc(-c3ccccc3)cc2)C1)c1cnc2ccsc2c1 [Compound 111] | > 8 | > 8 | > 8 | > 8 | > 8 | > 8 | > 8 | > 8 | > 8 | > 8 | > 8 | > 8 | – | – | – | – | – | – | – | –
Cc1ccc(S(=O)(=O)N[C@@H]2CCN(Cc3ccc(OC(C)C)cc3)C2)cc1C#N [Compound 161] | – | – | – | – | – | – | – | – | > 8 | > 8 | > 8 | > 8 | > 8 | > 8 | > 8 | > 8 | > 8 | > 8 | > 8 | > 8
CS(=O)(=O)c1ccc(Cl)c(S(=O)(=O)N[C@@H]2CCN(Cc3ccc(OC4CC4)cc3)C2)c1 [Compound 151] | – | – | – | – | – | – | – | – | > 8 | > 8 | > 8 | > 8 | > 8 | > 8 | ~8 (≈ 16.5 µM) | > 8 | > 8 | > 8 | > 8 | > 8
